Assay results taken from patent US6737383B1, “Herbicidal oxadiazolidines” (priority 1999, dated 2004).

Legend:
common groundsel = assay: Test D common groundsel; format: in vivo, Senecio vulgaris; conditions: Preemergence, 0 to 100 scale
Outline: (§1)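 Seeds were sown in greenhouse pots, one species per pot or compartment. Compounds were in a non-phytotoxic solvent mixture with surfactant; preemergence applications went on the sandy loam surface within one day of planting. Injury was rated visually after 14 to 21 days, 0 (none) to 100 (complete control).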

common ragweed = assay: Test D common ragweed; format: in vivo, Ambrosia elatior; conditions: Preemergence, 0 to 100 scale
Outline: as §1

large crabgrass = assay: Test D large crabgrass; format: in vivo, Digitaria sanguinalis; conditions: Preemergence, 0 to 100 scale
Outline: as §1

chickweed = assay: Test E chickweed; format: in vivo, Stellaria media; conditions: Preemergence
morningglory = assay: Test A morningglory; format: in vivo, Ipomoea spp.; conditions: 0 to 10 scale where 0 is no effect and 10 is complete control
Outline: (§2)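 Ratings came from visual comparison with untreated plants about eleven days after treatment, scored 0 for no effect through 10 for complete control. Both soil-drench preemergence and runoff-spray postemergence applications were made at the same time.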

tall mallow = assay: Test D tall mallow; format: in vivo, Malva sylvestris; conditions: Preemergence, 0 to 100 scale
Outline: as §1

goosegrass = assay: Test D goosegrass; format: in vivo, Eleusine indica; conditions: Preemergence, 0 to 100 scale
Outline: as §1

guineagrass = assay: Test D guineagrass; format: in vivo, Panicum maximum; conditions: Preemergence, 0 to 100 scale
Outline: as §1

Green foxtail = assay: Test D green foxtail; format: in vivo
Outline: as §1

velvetleaf = assay: Test A velvetleaf; format: in vivo, Abutilon theophrasti; conditions: 0 to 10 scale where 0 is no effect and 10 is complete control
Outline: as §2

dallisgrass = assay: Test D dallisgrass; format: in vivo, Paspalum dilatatum; conditions: Preemergence, 0 to 100 scale
Outline: as §1

pitted morningglory = assay: Test D pitted morningglory; format: in vivo, Ipomoea lacunosa; conditions: Preemergence, 0 to 100 scale
Outline: as §1

surinam grass = assay: Test D surinam grass; format: in vivo, Brachiaria decumbens; conditions: Preemergence, 0 to 100 scale
Outline: as §1

crabgrass = assay: Test A crabgrass; format: in vivo, Digitaria spp.; conditions: 0 to 10 scale where 0 is no effect and 10 is complete control
Outline: as §2

Alexandergrass = assay: Test D Alexandergrass; format: in vivo, Brachiaria plantaginea; conditions: Preemergence, 0 to 100 scale
Outline: as §1

common pursiane = assay: Test D common purslane; format: in vivo, Portulaca oleracea
Outline: as §1

Spanishneedles = assay: Test D Spanishneedles; format: in vivo, Bidens bipinnata; conditions: Preemergence, 0 to 100 scale
Outline: as §1

purple nutsedge = assay: Test D purple nutsedge; format: in vivo, Cyperus rotundus; conditions: Preemergence, 0 to 100 scale
Outline: as §1

sandbur = assay: Test D sandbur; format: in vivo, Cenchrus echinatus; conditions: Preemergence, 0 to 100 scale
Outline: as §1

[1] = Rate 125 g/ha, 0 no injury, 100 complete control
[2] = Rate 125 g/ha, 0 to 100 scale (0 no effect, 100 complete control)
[3] = Rate 500 g/ha, 0 to 100 scale where 0 is no effect and 100 is complete control
[4] = Rate 125 g/ha, Preemergence; 0 to 100 scale, 0 no injury, 100 complete control
[5] = Rate 16 g/ha, 0 no injury, 100 complete control
[6] = Rate 32 g/ha, 0 no injury, 100 complete control
[7] = Rate 64 g/ha, 0 no injury, 100 complete control
[8] = Rate 16 g/ha; Preemergence; 0 to 100 scale, 0 no injury, 100 complete control
[9] = Rate 64 g/ha, Preemergence; 0 to 100 scale, 0 no injury, 100 complete control
[10] = Rate 250 g/ha; Preemergence; 0 to 100 scale
[11] = Rate 500 g/ha, Preemergence; 0 to 100 scale

CC(C)N(C(=O)n1oc(=O)n(C(C)C)c1=O)c1ccc(Cl)cc1 [Compound 114]
Plant response rating, Com. groundsel (common groundsel; [1]): 85 | Plant response rating, C. ragweed (common ragweed; [1]): 0 | Plant response rating Large crabgrass (large crabgrass; [1]): 100 | Plant response rating, Chickweed (chickweed; [2]): 15 | Plant response rating, Chickweed (chickweed; Rate 250 g/ha, 0 to 100 scale): 50 | Plant response rating, Chickweed (chickweed; [3]): 100 | Plant response rating, Morningglory (morningglory; Postemergence, Rate 1000 g/ha): 10 | Plant response rating, Morningglory (morningglory; Pre-emergence, Rate 2000 g/ha): 6 | Tall Mallow plant response rating (tall mallow; [1]): 10 | Plant response rating, Goosegrass (goosegrass; [1]): 100 | Plant response rating, Guineagrass (guineagrass; [1]): 100 | Green foxtail plant response rating (Green foxtail; [4]): 100 | Plant response rating, Green foxtail (Green foxtail; [4]): 100 | Plant response rating, Velvetleaf (velvetleaf; Postemergence, Rate 1000 g/ha): 5 | Plant response rating, Velvetleaf (velvetleaf; Pre-emergence, Rate 2000 g/ha): 6 | Plant response rating, Dallisgrass (dallisgrass; [1]): 100 | Plant response rating, P. morninglory (pitted morningglory; [1]): 0 | Surinam grass plant response rating (surinam grass; [1]): 75 | Plant response rating, Crabgrass (crabgrass; Postemergence, Rate 1000 g/ha): 7 | Plant response rating, Crabgrass (crabgrass; Pre-emergence, Rate 2000 g/ha): 10 | Plant response rating, Alexandergrass (Alexandergrass; [1]): 98 | Plant response rating, C. purslane (common pursiane; [4]): 0 | Spanishneedles plant response rating (Spanishneedles; [1]): 0 | Purple nutsedge plant response rating (purple nutsedge; [1]): 20 | Sandbur plant response rating (sandbur; [1]): 85

CC(C)N(C(=O)n1oc(=O)n(C(C)C)c1=O)c1ccc(F)cc1 [Compound 131]
Plant response rating, Com. groundsel (common groundsel; [5]): 75 | Plant response rating, Com. groundsel (common groundsel; [6]): 75 | Plant response rating, Com. groundsel (common groundsel; [7]): 85 | Plant response rating, Com. groundsel (common groundsel; [1]): 100 | Plant response rating, Com. groundsel (common groundsel; Rate 250 g/ha): 100 | Plant response rating, Com. groundsel (common groundsel; Rate 500 g/ha): 100 | Plant response rating, C. ragweed (common ragweed; [5]): 0 | Plant response rating, C. ragweed (common ragweed; [6]): 0 | Plant response rating, C. ragweed (common ragweed; [7]): 30 | Plant response rating, C. ragweed (common ragweed; [1]): 30 | Plant response rating, C. ragweed (common ragweed; Rate 250 g/ha): 100 | Plant response rating, C. ragweed (common ragweed; Rate 500 g/ha): 100 | Plant response rating Large crabgrass (large crabgrass; [5]): 100 | Plant response rating Large crabgrass (large crabgrass; [6]): 100 | Plant response rating Large crabgrass (large crabgrass; [7]): 100 | Plant response rating Large crabgrass (large crabgrass; [1]): 100 | Plant response rating Large crabgrass (large crabgrass; Rate 250 g/ha): 100 | Plant response rating Large crabgrass (large crabgrass; Rate 500 g/ha): 100 | Plant response rating, Chickweed (chickweed; [2]): 100 | Chickweed plant response rating (0 to 100 scale) (chickweed; Rate 250 g/ha): 100 | Plant response rating, Chickweed (chickweed; [3]): 100 | Plant response rating, Tall Mallow (tall mallow; [5]): 30 | Plant response rating, Tall Mallow (tall mallow; [6]): 30 | Tall Mallow plant response rating (tall mallow; [7]): 80 | Tall Mallow plant response rating (tall mallow; [1]): 80 | Plant response rating, Tall Mallow (tall mallow; Rate 250 g/ha): 90 | Plant response rating, Tall Mallow (tall mallow; Rate 500 g/ha): 100 | Plant response rating, Goosegrass (goosegrass; [5]): 75 | Plant response rating, Goosegrass (goosegrass; [6]): 98 | Plant response rating, Goosegrass (goosegrass; [7]): 100 | Plant response rating, Goosegrass (goosegrass; [1]): 100 | Plant response rating, Goosegrass (goosegrass; Rate 250 g/ha): 100 | Plant response rating, Goosegrass (goosegrass; Rate 500 g/ha): 100 | Plant response rating, Guineagrass (guineagrass; [5]): 0 | Plant response rating, Guineagrass (guineagrass; [6]): 100 | Plant response rating, Guineagrass (guineagrass; [7]): 100 | Plant response rating, Guineagrass (guineagrass; [1]): 100 | Plant response rating, Guineagrass (guineagrass; Rate 250 g/ha): 100 | Plant response rating, Guineagrass (guineagrass; Rate 500 g/ha): 100 | Plant response rating, Green foxtail (Green foxtail; Preemergence; Rate 16 g/ha; 0 to 100 scale, 0 no injury, 100 complete control): 90 | Plant response rating, Green foxtail (Green foxtail; Preemergence; Rate 32 g/ha; 0 to 100 scale, 0 no injury, 100 complete control): 100 | Plant response rating, Green foxtail (Green foxtail; [8]): 90 | Green foxtail plant response rating (Green foxtail; [9]): 100 | Plant response rating, Green foxtail (Green foxtail; [9]): 100 | Green foxtail plant response rating (Green foxtail; [4]): 100 | Plant response rating, Green foxtail (Green foxtail; [4]): 100 | Plant response rating, Green foxtail (Green foxtail; [10]): 100 | Plant response rating, Green foxtail (Green foxtail; [11]): 100 | Plant response rating, Dallisgrass (dallisgrass; [5]): 85 | Plant response rating, Dallisgrass (dallisgrass; [6]): 95 | Plant response rating, Dallisgrass (dallisgrass; [7]): 100 | Plant response rating, Dallisgrass (dallisgrass; [1]): 100 | Plant response rating, Dallisgrass (dallisgrass; Rate 250 g/ha): 100 | Plant response rating, Dallisgrass (dallisgrass; Rate 500 g/ha): 100 | Plant response rating, P. morninglory (pitted morningglory; [5]): 0 | Plant response rating, P. morninglory (pitted morningglory; [6]): 0 | Plant response rating, P. morninglory (pitted morningglory; [7]): 0 | Plant response rating, P. morninglory (pitted morningglory; [1]): 50 | Plant response rating, P. morninglory (pitted morningglory; Rate 250 g/ha): 85 | Plant response rating, P. morninglory (pitted morningglory; Rate 500 g/ha): 100 | Plant response rating, Surinam grass (surinam grass; [5]): 20 | Plant response rating, Surinam grass (surinam grass; [6]): 75 | Surinam grass plant response rating (surinam grass; [7]): 85 | Surinam grass plant response rating (surinam grass; [1]): 100 | Plant response rating, Surinam grass (surinam grass; Rate 250 g/ha): 100 | Plant response rating, Surinam grass (surinam grass; Rate 500 g/ha): 100 | Plant response rating, Alexandergrass (Alexandergrass; [5]): 20 | Plant response rating, Alexandergrass (Alexandergrass; [6]): 90 | Plant response rating, Alexandergrass (Alexandergrass; [7]): 98 | Plant response rating, Alexandergrass (Alexandergrass; [1]): 100 | Plant response rating, Alexandergrass (Alexandergrass; Rate 250 g/ha): 100 | Plant response rating, Alexandergrass (Alexandergrass; Rate 500 g/ha): 100 | Plant response rating, C. purslane (common pursiane; [8]): 0 | Plant response rating, C. purslane (common pursiane; Rate 32 g/ha; Preemergence; 0 to 100 scale, 0 no injury, 100 complete control): 0 | Plant response rating, C. purslane (common pursiane; [9]): 0 | Plant response rating, C. purslane (common pursiane; [4]): 0 | Plant response rating, C. purslane (common pursiane; [10]): 10 | Plant response rating, C. purslane (common pursiane; [11]): 100 | Plant response rating, C. purslane (common pursiane; Rate 500 g/ha; Preemergence; 0 to 100 scale): 10 | Plant response rating, Spanishneedles (Spanishneedles; [5]): 0 | Plant response rating, Spanishneedles (Spanishneedles; [6]): 0 | Spanishneedles plant response rating (Spanishneedles; [7]): 40 | Spanishneedles plant response rating (Spanishneedles; [1]): 60 | Plant response rating, Spanishneedles (Spanishneedles; Rate 500 g/ha): 90 | Plant response rating, Purple nutsedge (purple nutsedge; [5]): 0 | Plant response rating, Purple nutsedge (purple nutsedge; [6]): 0 | Purple nutsedge plant response rating (purple nutsedge; [7]): 40 | Purple nutsedge plant response rating (purple nutsedge; [1]): 60 | Plant response rating, Purple nutsedge (purple nutsedge; Rate 250 g/ha): 85 | Plant response rating, Purple nutsedge (purple nutsedge; Rate 500 g/ha): 85 | Plant response rating, Sandbur (sandbur; [5]): 0 | Plant response rating, Sandbur (sandbur; [6]): 60 | Sandbur plant response rating (sandbur; [7]): 85 | Sandbur plant response rating (sandbur; [1]): 100 | Plant response rating, Sandbur (sandbur; Rate 250 g/ha): 100 | Plant response rating, Sandbur (sandbur; Rate 500 g/ha): 100
